According to patent publication US5498788A, “Inclusion complexes of clavulanic acid and of potassium salts thereof with hydrophobic β-cyclodextrin derivatives a process for the preparation thereof” (LEK, tovarna farmacevtskih, priority 1992, dated 1996):

What was measured:
[1] = Stability test of complexed and uncomplexed potassium clavulanate in artificial gastric juice (pH 1.2, 37° C.); assay type: physicochemical
Protocol: Stability test of complexed and uncomplexed potassium clavulanate in artificial gastric juice (pH 1.2) at the temperature of 37° C.
For the test the following samples were used:
Medium: artificial gastric juice--aq. HCl/NaCl buffer, pH 1.2, according to USP XXII.
Concentration of clavulanic acid (abbr. KA) in samples: 4 mg/ml.
The samples 1 to 3 were dissolved under stirring in an artificial gastric juice (100 ml) thermostated at 37° C., at the concentration of 4 mg/ml with regard to the clavulanic acid. Subsequently, 100 μl aliquots were taken at 5 min intervals for analysis by the HPLC, until a more than 95% KA decomposition was found. The solution was stirred all the time at the temperature of 37° C. ±0.5° C.
Separately, a series of ten 10 ml aliquots of KA-TA-β-CD suspension in a buffer of a pH of 1.2 (cone. of KA=4 mg/ml), which were constantly stirred during thermostating at 37° C., was prepared. At time intervals of 5 to 10 min, the individual aliquots were filtered (membrane filter 0.4 μm) and in the clear filtrate the concentration of clavulanic acid was determined by HPLC. The KA content at times up to 90 min of thermostating was noted.
The results of measurements after 15, 30, 45, 60 and 90 min of thermostating the samples at 37° C. in a buffer at pH 1.2 are shown in following Table.

[2] = test system: β-lactamases; conditions: cited from earlier work
[3] = penicillinic and cephalosporin class; cited from earlier work
[4] = cited from earlier work

Structure (SMILES)	remaining at 0.25 h ([1]; artificial gastric juice, 15 min thermostating, pH 1.2, 37° C., KA 4 mg/ml, read-out: KA (undecomp.) as to the initial KA conc. (100%) in samples)	remaining at 0.5 h ([1]; artificial gastric juice, 30 min thermostating, pH 1.2, 37° C., KA 4 mg/ml, read-out: KA (undecomp.) as to the initial KA conc. (100%) in samples)	remaining at 0.75 h ([1]; artificial gastric juice, 45 min thermostating, pH 1.2, 37° C., KA 4 mg/ml, read-out: KA (undecomp.) as to the initial KA conc. (100%) in samples)	time of 95% decomposition of clavulanic acid (t95%) ([1]; pH 1.2, 37° C. (FIG. 9))	inhibition of β-lactamases (in words) [2]	effect in combination with β-lactam antibiotics [3]	solubility in water (in words) [4]	time of 95% decomposition of clavulanic acid ([1]; conditions present in gastric juice, 37° C.)
O=C(O)[C@H]1/C(=C/CO)O[C@@H]2CC(=O)N21 [KK, potassium clavulanate]	18.1%	1.3%	0%	26 min				
O=C(O)[C@H]1/C(=C/CO)O[C@@H]2CC(=O)N21 [clavulanic acid, (2R,5R,Z)-3-(2-hydroxyethylidene)-7-oxo-4-oxa-1-azabicyclo[3.2.0]heptane-2-carboxylic acid]					inhibitors of β-lactamases	synergistic effect	very well soluble in water	26 min
